Test results: US6391871B1 (priority 1996, dated 2002)
Like-named read-outs stand apart in the source and are kept apart here.

Assays:
[1] = test system: pyramidal neurons in layers III and IV of the posterior cingulate and retrosplenial (PC/RS) cortices; experiment: In vivo assay of toxic side effects of NMDA antagonists (vacuole formation in PC/RS cortex); settings: adult female rats, ip, sacrificed four hours after treatment
vacuolated PC/RS neurons [2] = format: in vivo, rat; settings: MK-801 ip
Protocol: To try to avoid that problem, a subsequent set of tests was carried out in which NBQX was microinjected directly into the PC/RS cortex, at one of two doses, either 0.025 or 0.25 nmols.

vacuolated PC/RS neurons [3] = format: in vivo, rat; settings: NBQX 15 mg/kg ip every 30 minutes, 4 injections, with MK-801 0.5 mg/kg; 4 h; ± SEM
Description: The rats were sacrificed four hours after the treatment began, and brain tissue from the PC/RS region was histologically evaluated, by previously described methods (Olney et al 1991) using double-blinded techniques. The number of vacuolated PC/RS neurons were counted on each side of the brain at a rostrocaudal level immediately posterior to where the corpus callosum ceases decussating across the midline (approximately 5.6 mm caudal to Bregma; see Paxinos & Watson, The Rat Brain in Stereotaxic Coordinates, 2nd ed., 1986).

NMDA receptors = format: cell-based, chick
Protocol: Potency rating=minimum concentration required to provide total protection against neurotoxic effects of NMDA (40 μM) in chick embryo retinal tissue tests
These experiments were performed using segments of chick embryo retina. This is a widely used model for studying the production and prevention of excitotoxic phenomena, since it is a simple and inexpensive preparation, and since chick tissue provides a better model of adult mammalian neurons than embryonic or juvenile mammalian tissue. All of the glutamate receptors that mediate excitotoxic phenomena are present in chick retinas, and are sensitive to excitotoxic stimulation. By contrast, in embryonic or juvenile mammalian tissue, various glutamate receptors are not fully matured and are not responsive in the same ways that occur in adult mammalian tissue.
In these tests, NMDA is introduced into the incubation medium in a concentration ([…]) sufficient to produce a fully developed excitotoxic lesion within 30 min, displaying acute degeneration and necrosis of the majority of neurons in the inner layers of the retina. The control retinas are incubated with NMDA alone, and experimental retinas are incubated with NMDA plus a test compound that is being evaluated for NMDA antagonist properties. […] All agents that prevent NMDA from hyperactivating NMDA receptors and thereby inducing an excitotoxic neurodegenerative reaction in the chick embryo retina are considered appropriate candidate drugs for preventing NMDA receptor hyperactivation and NMDA receptor burnout in the presymptomatic stages of Alzheimer's disease.
The concentration of the test compound required to prevent NMDA from inducing neuronal degeneration in the chick retina tissue is considered a measure of its expected potency for preventing NMDA receptor hyperactivation and NMDA receptor burnout in the presymptomatic stages of Alzheimer's disease.

cerebrocortical neurons = settings: Olney et al 1989, Corso et al 1994; cited from earlier work
neurons in rat brain = experiment: PCP alone (minipump infusion or single high dose), brain damage in rats; format: in vivo
Description: Initially, the Applicants found it difficult to perform a detailed analysis of the full pattern and type of damage that can be induced in the adult rat brain by treatment with an NMDA antagonist because of technical problems that had to be overcome. Therefore, the Applicants tried several approaches. For example, it had been claimed (Ellison 1994) that when PCP is infused continuously in adult rats for five days, by a subcutaneously implanted minipump, it causes injury to nerve cells in several brain regions.
However, they found (Corso et al 1994) that even when a near lethal dose (50-80 mg/kg sc) was administered, a fully developed widespread pattern of damage could only be induced in a very small percentage of treated animals.

[4] = test system: neurons in neocortical and limbic brain regions; experiment: Histopathology of rat brain after PCP/pilocarpine treatment; format: in vivo; settings: PCP 50 mg/kg i.p. combined with pilocarpine 10 mg/kg i.p.
Protocol: Adult female rats were injected subcutaneously with an NMDA antagonist drug, phencyclidine (PCP), at 50 milligrams of drug per kilogram of body weight (mg/kg sc), accompanied by a small dose of a muscarinic agonist, pilocarpine (10 mg/kg sc). At various times (4, 16, 24, 48, 72 and 96 hours) after treatment, the rats were anesthetized and perfused with fixative to allow their brains to be prepared for histological evaluation.
Degenerating neurons in various brain regions were also examined by electron microscopy, to obtain evidence for loss of synaptic complexes, and a computer-assisted cell plotting system was used to plot the location and count the frequency with which degenerating neurons were found in each brain region.
Massive loss of neurons throughout many neocortical and limbic brain regions is a hallmark characteristic of Alzheimer's disease. To establish that the NR/hypo mechanism results not only in cell injury but in cell death, the Applicants systematically examined the brains of rats 4 days following PCP/pilocarpine treatment. Sections prepared at 1 millimeter intervals from one side of the brain were stained, using hematoxylin and eosin; sections prepared at 1 millimeter intervals from the other side of the brain were stained using a silver impregnation stain. […]

[5] = human anesthesia; cited from earlier work

Structure (SMILES)	neurotoxic (vacuole) reaction in PC/RS cortex, drug by itself [1]	reduction of vacuoles, protected (ipsilateral) side, lower dosage (vacuolated PC/RS neurons [2]; NBQX 0.025 nmols microinjected into PC/RS cortex)	reduction of vacuoles, protected (ipsilateral) side, higher dosage (vacuolated PC/RS neurons [2]; NBQX 0.25 nmols microinjected into PC/RS cortex)	vacuolated neurons in PC/RS cortex, MK-801 plus NBQX (vacuolated PC/RS neurons [3])	POTENCY RATING = minimum concentration required to provide total protection against neurotoxic effects of NMDA (NMDA receptors; NMDA 40 μM, chick embryo retinal tissue)	pathological changes in cerebral cortex / corticolimbic regions of adult rats (cerebrocortical neurons)	rats with a full pattern of damage out of 40 rats treated (neurons in rat brain; PCP 50 mg/kg i.p., single dose)	neuronal damage after continuous infusion by subcutaneous minipump (neurons in rat brain; adult rats, five days, same dose as Ellison 1994)	near lethal dose (neurons in rat brain; rats)	POTENCY RATING = minimum concentration required to provide total protection against neurotoxic effects of NMDA (NMDA receptors)	NR/hypo-induced brain damage, PCP combined with pilocarpine [4]	duration of action [5]
NS(=O)(=O)c1cccc2c1c([N+](=O)[O-])cc1nc(O)c(O)nc12 [NBQX]	did not cause vacuoles	about 20%	about 80%	52±22.4 vacuolated neurons per microscopic section	100 µM	–	–	–	–	–	–	–
c1ccc(C2(N3CCCCC3)CCCCC2)cc1 [Phencyclidine]	–	–	–	–	–	produce pathological changes in various corticolimbic regions of the adult rat brain	1	produced no neuronal damage at all	50-80 mg/kg sc	1 µM	reliably and consistently produced severe levels of NR/hypo-induced damage	–
CNC1(c2ccccc2Cl)CCCCC1=O (centres unmarked) [Ketamine]	–	–	–	–	–	cause pathological changes in the cerebral cortex of adult rats	–	–	–	10 µM	–	about 15 minutes
